Results published in paper PMC10748408 (Frontiers in Oncology, 2023).

Tested on: TLR4
Assay: TLR4 silencing by vivo-morpholino, western blot of tumors
Type: in vivo, BALB/c mice
Conditions: tumor-bearing mice, with 25 mg/kg ART, vs SC-MO, p<0.001
Protocol: Normal and tumor tissues were homogenized in ice-cold radioimmunoprecipitation assay (RIPA) buffer containing a protease inhibitor cocktail. Proteins were resolved by 10% sodium dodecyl sulphate-polyacrylamide gel electrophoresis (SDS-PAGE), transferred onto polyvinylidene difluoride (PVDF) membranes, blocked with 5% fat-free milk and incubated with primary antibodies (1:1000 dilution) overnight at 4°C. Blots were subsequently washed and incubated with respective secondary antibodies, tagged with horseradish peroxidase. Protein expression was detected using enhanced chemiluminescence (ECL) kit ([37]). Blots were analyzed using the Gel Doc XR and band intensity quantified using ImageJ software (NIH, USA).
Murine mammary tumors were allowed to develop in BALB/c mice injected with 10^7 4T1 cells. […] Control groups were set up, where normal mice and mice-bearing tumors received PBS for 7 days. At the end of the experiment, tissues were harvested and processed for subsequent experiments.

Question: For “TLR4-VMO: vivo morpholino oligomers against TLR4 mRNA; 5' CAGGGAGGCATCATCCTGGCATTTT 3' (all phosphorodiamidate morpholino (PMO); vivo-morpholino from GeneTools, further chemistry not fully specified)”, which TLR4 expression is on record?
Answer: significantly diminished
